Laboratory results taken from article PMC4786716, “Biophysical Characterization and Activity of Lymphostatin, a Multifunctional Virulence Factor of Attaching and Effacing Escherichia coli” (The Journal of Biological Chemistry, 2016).

Molecular target: T1, lymphostatin (LifA; rLifA) (Escherichia coli, UniProt B7UI23)
T1 construct: gene E2348C_3234; full-length, C-terminal His6 tag kept, expressed in E. cloni (E. coli K-12) from pRham; 3229 residues as printed, 365 kDa, monomer
Test: intrinsic tryptophan fluorescence titration (ex […] nm, em […] nm)
Assay type: binding

CC(=O)N[C@H]1[C@@H](OP(=O)(O)OP(=O)(O)OC[C@H]2O[C@@H](n3ccc(=O)[nH]c3=O)[C@H](O)[C@@H]2O)O[C@H](CO)[C@@H](O)[C@@H]1O [UDP-GlcNAc]
Kd: 120 ± 30 µM
